# From article PMC7036097 (BioMed Research International, 2020)
# Target: T1, DPP4 (Homo sapiens, UniProt P27487)
# T1 construct: purchased Sigma
# Test: DPPIV-Glo Protease Assay (DPP4 protease inhibition assay)
# Type: biochemical
# Settings: in vitro
# Method: At the same time, the inhibitory effect of other compounds present in tea such as epigallocatechin, epicatechin gallate, epicatechin, and catechin on DPP4 activity was also determined. […] Epigallocatechin, epicatechin gallate, epicatechin, and catechin were obtained from bidepharm (Shanghai, China). Half maximal inhibitory concentration (IC50) values were determined by nonlinear regression in GraphPad Prism 6 software.
# T1 sequence (P27487 whole entry): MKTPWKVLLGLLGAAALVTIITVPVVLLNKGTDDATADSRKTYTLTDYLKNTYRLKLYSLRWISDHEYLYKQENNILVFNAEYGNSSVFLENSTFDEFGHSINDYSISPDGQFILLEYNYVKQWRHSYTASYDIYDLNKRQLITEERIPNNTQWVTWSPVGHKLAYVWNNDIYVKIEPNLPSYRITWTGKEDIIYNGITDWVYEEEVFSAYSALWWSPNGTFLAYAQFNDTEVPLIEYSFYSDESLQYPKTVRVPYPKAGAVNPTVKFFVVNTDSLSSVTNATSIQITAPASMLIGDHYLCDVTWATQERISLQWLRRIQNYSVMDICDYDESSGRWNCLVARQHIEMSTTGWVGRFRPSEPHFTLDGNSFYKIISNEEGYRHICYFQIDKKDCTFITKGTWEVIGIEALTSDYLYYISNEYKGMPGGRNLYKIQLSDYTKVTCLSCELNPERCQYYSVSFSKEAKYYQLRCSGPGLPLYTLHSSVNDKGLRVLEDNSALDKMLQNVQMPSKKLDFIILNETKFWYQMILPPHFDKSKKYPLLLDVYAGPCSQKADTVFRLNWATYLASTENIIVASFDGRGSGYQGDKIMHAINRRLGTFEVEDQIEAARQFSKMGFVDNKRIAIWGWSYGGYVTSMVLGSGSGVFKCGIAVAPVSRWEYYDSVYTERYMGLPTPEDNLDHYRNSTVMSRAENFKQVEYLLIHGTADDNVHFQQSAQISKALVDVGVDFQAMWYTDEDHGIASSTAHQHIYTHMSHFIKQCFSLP
row,IC50 [µM],SMILES
1,281,Oc1cc(O)c2c(c1)O[C@H](c1ccc(O)c(O)c1)[C@H](O)C2 [epicatechin]
2,28.4,"O=C(OC1Cc2c(O)cc(O)cc2OC1c1cc(O)c(O)c(O)c1)c1cc(O)c(O)c(O)c1 (centres unmarked) [EGCG, Epigallocatechin-3-gallate]"
3,567,Oc1cc(O)c2c(c1)O[C@H](c1cc(O)c(O)c(O)c1)[C@H](O)C2 [epigallocatechin]
4,107,O=C(O[C@@H]1Cc2c(O)cc(O)cc2O[C@@H]1c1ccc(O)c(O)c1)c1cc(O)c(O)c(O)c1 [epicatechin gallate]
5,381,Oc1cc(O)c2c(c1)O[C@H](c1ccc(O)c(O)c1)[C@@H](O)C2 [catechin]
